Measured values as given in patent US20210161189A1, “MONOESTER SUGAR DERIVATIVES AS FLAVOR MODIFIERS” (Firmenich SA, priority 2018, published 2021).

Key:
[1] = system: sensory panel; assay: Sensory panel, dairy test composition (milk sweetened with 3% w/v sucrose); format: in vivo, human; conditions: 100 ppm in milk sweetened with 3% sucrose; panel score
Description: Glucose-6-O-octanoate, manufactured according to the methods described in Example 1 above was added to a dairy test composition (milk sweetened with 3% w/v sucrose), to result in a final concentration of 100 ppm in the test composition. In parallel, a control composition, comprising milk sweetened with 3% w/v sucrose was also generated. A sensory panel consisting of between 6 to 8 persons compared the overall flavor, sweetness, acidity, bitterness, astringency, off-notes, and long-lastingness of the sweetness of the dairy test composition containing 100 ppm glucose-6-O-octanoate and the control composition. The results were analyzed using the Duncan comparison test.

[2] = system: sensory panel; assay: Sensory panel, lemon flavored alcoholic beverage; format: in vivo, human; set-up: scale not given here; conditions: panel score
Description: […] In parallel, a control composition, comprising lemon flavored alcoholic beverage was also generated. A sensory panel consisting of between 6 to 8 persons compared the overall flavor, sweetness, acidity, bitterness, astringency, off-notes, and long-lastingness of the sweetness of the test composition and the control composition. The results were analyzed using the Duncan comparison test.

[3] = system: sensory panel; assay: Sensory panel, raspberry flavored water; format: in vivo, human; set-up: scale not given here; conditions: panel score
Description: […] In parallel, a control composition, comprising raspberry flavored water was also generated. A sensory panel consisting of between 6 to 8 persons compared the overall flavor, sweetness, acidity, bitterness, astringency, off-notes, and long-lastingness of the sweetness of the test composition and the control composition. The results were analyzed using the Duncan comparison test.

[4] = system: sensory panel; assay: Sensory panel, orange flavored test composition; format: in vivo, human; conditions: 200 ppm in orange flavored test composition, panel score
Description: Next, glucose-6-O-octanoate was added to an orange flavored test composition, to result in a final concentration of 200 ppm in the test composition. In parallel, a control composition, comprising orange flavor was also generated. A sensory panel consisting of between 6 to 8 persons compared the overall flavor, sweetness, acidity, bitterness, astringency, off-notes, and long-lastingness of the sweetness of the test composition and the control composition. The results were analyzed using the Duncan comparison test.

[5] = system: sensory panel; assay: Taste modifier properties in model systems (sensory panel of 15 persons, with/without noseclip); format: in vivo, human; conditions: 100 ppm; for Sour taste modulation effect: without nose clip
Description: The sensory properties of various compositions comprising a monoester derivative of glucose were tested in various model systems, outlined in Table 14 below. [table] FIGS. 12 to 18 report the sweetness modifier properties of each of the following compounds (tested at 100 ppm in the various mode systems described above): glucose-6-O-octanoate, glucose-6-O-acetate, glucose-6-O-hexanoate, glucose-6-O-decanoate, glucose-6-O-hexadecanoate, glucose-6-O-oleate and glucose-6-O-oleyl derivative. The sensory properties were evaluated by a sensory panel consisting of15 persons, where the properties were evaluated with the subjects wearing a noseclip (With NC), and without a noseclip (Without NC). The subjects evaluate the perceived intensities of different sensory attributes on a linear scale (“0” note intense to “10” very intense) for the corresponding model mixtures without and with the compound at 100ppm. The differences of perceived intensities between the model mixtures with and without the compound are represented for each attribute. A statistical data treatment (unilateral paired student test) is achieved on each attribute to conclude on a significant or not significant taste modulation effect of the compound.

[6] = biological target: T1, β-Lactoglobulin layer (Bos taurus, UniProt P02754); assay: QCM-D mass adsorption of BWAT Raspberry water films on a protein layer; format: physicochemical; conditions: for mass/area: mass absorption on protein layer
T1 sequence (P02754 17-178): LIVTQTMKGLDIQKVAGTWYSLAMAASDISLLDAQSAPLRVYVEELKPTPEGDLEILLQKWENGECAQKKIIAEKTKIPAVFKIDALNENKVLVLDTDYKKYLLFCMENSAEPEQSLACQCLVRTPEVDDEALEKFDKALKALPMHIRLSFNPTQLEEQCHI
Excerpt: Quartz Crystal Microbalance with Dissipation monitoring (QCM-D) is a real-time, nanoscale technique for monitoring and characterizing thin films on surfaces as well for analyzing surface phenomena including thin film formation, adsorption, desorption, molecular interactions, reactions and structural properties. In this way, the QCM operates as a very sensitive balance.
A QCM sensor consists of a thin quartz disc sandwiched between a pair of electrodes. Due to the piezoelectric properties of quartz, it is possible to excite the crystal to oscillation by applying an AC voltage across its electrodes. Normally the electrodes are made of gold, which can be coated with a wide range of different materials. The resonance frequency (f) of the sensor depends on the total oscillating mass, including water coupled to the oscillation. When a thin film is attached to the sensor, the frequency decreases. If the film is thin and rigid the decrease in frequency is proportional to the mass of the film. Frequency monitoring gives information about mass changes and thickness of adsorbed film. Adsorbed films dampen the sensor's oscillation. […] Therefore dissipation is related to the rigidity of the adsorbed film.
This technique was used to analyse the properties of adsorbed BWAT Raspberry water films on a β-Lactoglobulin layer in order to compare the obtained physico-chemical data to the sensory data mentioned beforehand. β-Lactoglobulin was used in order to mimic the protein layer in the oral cavity.
The measurements were done as duplicates. First a protein layer was adsorbed on the quartz crystal. As soon as equilibrium is obtained, the excessive protein layer was rinsed with Millipore water in order to create a homogenous protein monolayer. Ensuing, the Raspberry water was left to rinse over the protein layer—frequency changes and energy dissipation were monitored during a time lapse of 10 min. A last rinsing step with Millipore was conducted.
To understand the role of glucose-6-O-octanoate (G60) as astringency/bitterness modulator the following solutions were investigated on their adsorption behavior.

[7] = 100 ppm in lemon flavored alcoholic beverage
[8] = 200 ppm in lemon flavored alcoholic beverage

Compound: CCCCCCCC(=O)OC[C@@H](O)[C@@H](O)[C@H](O)[C@@H](O)C=O [glucose-6-O-octanoate]
- Acidity [1]: 0
- Astringency [1]: 0.6
- Bitterness [1]: 0.8
- Long-Lasting [1]: 1.4
- Overall Flavor [1]: 1.8
- Acidity [2, 7]: 2
- Astringency [2, 7]: 1
- Off-notes [2, 7]: 0.25
- Overall Flavor [2, 7]: 3.5
- Sweetness [2, 7]: 3
- Acidity [2, 8]: 2
- Astringency [2, 8]: 2
- Bitterness [2, 8]: 1.1
- Long-Lasting [2, 8]: 1.6
- Off-notes [2, 8]: 0.4
- Overall Flavor [2, 8]: 2.3
- Astringency ([3]; 100 ppm in raspberry water): 0.58
- Bitterness ([3]; 100 ppm in raspberry water): 0.5
- Long-Lasting ([3]; 100 ppm in raspberry water): 0.67
- Overall Flavor ([3]; 100 ppm in raspberry water): 3.33
- Sweetness ([3]; 100 ppm in raspberry water): 3.42
- Acidity ([3]; 200 ppm in raspberry water): 2.62
- Long-Lasting ([3]; 200 ppm in raspberry water): 1.81
- Overall Flavor ([3]; 200 ppm in raspberry water): 3.06
- Sweetness ([3]; 200 ppm in raspberry water): 2.69
- Acidity [4]: 2.07
- Astringency [4]: decreasing
- Bitterness [4]: decreasing the perceived bitterness
- Long-Lasting [4]: 0.29
- Off-notes [4]: 0.14
- Overall Flavor [4]: 3
- Sweetness [4]: 2.79
- Astringency ([4]; listed as 71007): 1 B
- Bitterness ([4]; listed as 71007): 1.07 B
- Sweet taste modulation effect ([5]; SG95 model mixture, without and with nose clip): significant sweet enhancing effects
- Round/thick/mouth coating modulation effect ([5]; beverage grapefruit model, with nose clip, significance 95%): significant round/thick/mouth coating enhancing effect
- Sour taste modulation effect ([5]; beverage grapefruit model, significance 95%): significant sour masking effect
- Sweet taste modulation effect ([5]; semi-skimmed milk+sucrose model mixture, without and with nose clip): significant sweet enhancing effects
- Sweet taste modulation effect ([5]; stevia-sour model, with nose clip, significance 95%): significant sweet masking effect
- Sweet taste modulation effect ([5]; sucrose model mixture): significant sweet enhancing effects
- Sour taste modulation effect ([5]; sweet-sour model mixture, significance 95%): significant sour masking effect
- Mass adsorption versus control sample ([6]; BWAT raspberry water in presence of G60): higher mass adsorption compared to the control sample
- mass/area ([6]; BWAT w/ 200 ppm G60): 1257 ng/cm^2
- mass/area ([6]; BWAT w/ 1000 ppm G60): 1194 ng/cm^2
- Amount of rinsed away mass ([6]; over the 10 min of mass adsorption monitoring, dependence on G60 concentration): The higher the G60 concentration the lower is the amount of rinsed away mass
